Test results: article PMC9637228, “Elucidating host cell response pathways and repurposing therapeutics for SARS-CoV-2 and other coronaviruses” (Scientific Reports, 2022)
“Also recorded” adds a separate entry of the source. Structures can show the parent of a compound that is named as a salt. Where two headings read alike, the source gives them in different places.

Experiments:
SARS-CoV-2 [1] = assay: microbe, parasite or virus in culture; format: cell-based; details: for IC50: SARS-CoV-2 infected Vero cells; for anti-SARS-CoV-2 activity (in words): Vero cell assay
[2] = Cytotoxicity (cell viability) in the SARS-CoV-2 Vero cell assay; details: African green monkey, Vero cells
HCoV-229E = assay: Anti-HCoV-229E compound testing in MRC5 cells (Cell-Titer Glo); format: cell-based; details: for EC50: Human coronavirus 229E; for activity against HCoV-229E (in words): MRC5 cells
Procedure: (§1) Human lung fibroblast MRC5 cells were cultured in a 96-well plate at 10,000 cells/well in EMEM + 10% FBS overnight. The next day the culture medium was removed from each well and compounds in EMEM + 2% FBS + 0.5% DMSO were added. Each drug was tested on its own 96 well plate. Each plate contained 3 wells of uninfected cells without DMSO, 3 wells of uninfected cells with 0.5% DMSO, 3 wells of infected cells with no DMSO, and 3 wells of infected cells with 0.5% DMSO. Experimental compounds were tested in triplicate at each concentration. Tanespimycin, bortezomib, and homoharringtonine were tested using 2 µM starting concentration, 8-point, threefold serial dilution. After a 1-h pre-incubation with testing compounds, HCoV-229E or HCoV-OC43 viruses at an MOI of 0.01 were added to the culture with compounds for another 1 h. Cell-Titer Glo assay was added after additional incubation time with compounds of interest (HCoV-229E for 96 h and HCoV-OC43 for 120 h). Assay readout was performed using luminescence measurement on a Tecan Spark plate reader.
(§2) CC50 values were determined by applying nonlinear fit of luminescence readouts from uninfected, compound-treated wells against compound concentration. Likewise, EC50 values were determined by nonlinear fit of luminescence readouts from virus-infected, compound-treated wells. Nonlinear regression models were applied for derivation of EC50 and CC50 values respectively, based on built-in equations of Prism Version 8.2.1 (GraphPad Software, San Diego, CA). SI calculated as the ratio of CC50 to EC50.

HCoV-OC43 = assay: Anti-HCoV-OC43 compound testing in MRC5 cells (Cell-Titer Glo); format: cell-based; details: for activity against HCoV-OC43 (in words): MRC5 cells
Procedure: as §1, §2

SARS-CoV-1 = details: 10 μM, Huh-7 cells; cited from earlier work
SARS-CoV-2 [3] = details: 10 μM, Huh-7 cells; cited from earlier work
MERS-CoV = details: 10 μM, Huh-7 cells; cited from earlier work
[4] = Cytotoxicity in uninfected, compound-treated MRC5 cells (Cell-Titer Glo); details: human
SARS-CoV-2 [5] = details: read-out: reported IC50; cited from earlier work
[6] = Clinical dosing estimation of compounds (clinical exposure, Cmax); details: calculated from published Cmax and molecular weight
Vero cells = assay: Cytotoxicity (cell viability) in the SARS-CoV-2 Vero cell assay; details: Table 2 test
in vitro = details: African green monkey, Vero cells
[7] = human, in vivo
[8] = Severe acute respiratory syndrome coronavirus 2, Vero, 24 h, Table 2 test (average reversal score predicted compounds)
[9] = Severe acute respiratory syndrome coronavirus 2, Vero, Round 2, 24 h, 1-h preincubation, read-out: IC50
[10] = Betacoronavirus 1, MRC5 cells infected with HCoV-OC43, MOI 0.01, 120 h, read-out: EC50
[11] = Severe acute respiratory syndrome coronavirus 2, Vero, Round 1, 24 h, 1-h preincubation, read-out: IC50
[12] = Severe acute respiratory syndrome coronavirus 2, Vero, Round 1, 24 h, 1-h preincubation
[13] = Severe acute respiratory syndrome coronavirus 2, Vero, Round 2, 24 h, 1-h preincubation
[14] = MRC5 cells infected with HCoV-229E, MOI 0.01, 96 h, read-out: EC50
[15] = uninfected MRC5 lung fibroblast cells

CC[C@@H](C(N)=O)N1CCCC1=O [Levetiracetam]
IC50 (SARS-CoV-2 [1]; [8]): > 50 µM
anti-SARS-CoV-2 activity (in words) (SARS-CoV-2 [1]): no anti-viral activity
anti-SARS-CoV-2 activity (in words) (SARS-CoV-2 [1]; listed as levetiracetam): did not show meaningful anti-SARS-CoV-2 activity; also recorded: did not result in a meaningful effect on viral production
CC50 at 24 h ([2]; CC50, Table 2 test): > 50 µM

C=CCNC1=C2C[C@@H](C)C[C@H](OC)[C@H](O)[C@@H](C)/C=C(\C)[C@H](OC(N)=O)[C@@H](OC)/C=C\C=C(/C)C(=O)NC(=CC1=O)C2=O [Tanespimycin]
IC50 (SARS-CoV-2 [1]; [9]): 31.3 µM
anti-SARS-CoV-2 activity (in words) (SARS-CoV-2 [1]): no activity
anti-SARS-CoV-2 activity (in words) (SARS-CoV-2 [1]; listed as tanespimycin): neither tanespimycin nor a second generation HSP90 inhibitor ganetespib exhibited anti-viral efficacy
EC50 (HCoV-229E; MRC5): < 0.001 µM
EC50 (HCoV-229E; MRC5, 96 h): 0.0036 µM
activity against HCoV-229E (in words) (HCoV-229E): effective
activity against HCoV-229E (in words) (HCoV-229E; listed as tanespimycin): highly potent
EC50 (HCoV-OC43; Betacoronavirus 1, OC43, MRC5): < 0.001 µM
EC50 (HCoV-OC43; [10]): 0.0019 µM
activity against HCoV-OC43 (in words) (HCoV-OC43): effective
activity against HCoV-OC43 (in words) (HCoV-OC43; listed as tanespimycin): highly potent
inhibition of viral activities of SARS-CoV-1 (SARS-CoV-1): effectively inhibited
inhibition of viral activities of SARS-CoV-2 (SARS-CoV-2 [3]): effectively inhibited
inhibition of viral activities of MERS-CoV (MERS-CoV): effectively inhibited
CC50 at 24 h ([2]; CC50, Round 2): > 50 µM
CC50 at 96 h [4]: 0.182 µM
CC50 at 120 h [4]: 0.253 µM

C#CCC(Cc1cnc2nc(N)nc(N)c2n1)c1ccc(C(=O)N[C@@H](CCC(=O)O)C(=O)O)cc1 (stereo partly shown) [Pralatrexate]
IC50 (SARS-CoV-2 [5]): 0.008 µM

CC(C)c1cc(-c2n[nH]c(=O)n2-c2ccc3c(ccn3C)c2)c(O)cc1O [Ganetespib]
IC50 (SARS-CoV-2 [1]; [9]): 35.5 µM
anti-SARS-CoV-2 activity (in words) (SARS-CoV-2 [1]): no activity; also recorded: neither tanespimycin nor a second generation HSP90 inhibitor ganetespib exhibited anti-viral efficacy
CC50 at 24 h ([2]; CC50, Round 2): 28.9 µM

CC(=O)Nc1cccc(-n2c(=O)n(C3CC3)c(=O)c3c(Nc4ccc(I)cc4F)n(C)c(=O)c(C)c32)c1 [Trametinib]
IC50 (SARS-CoV-2 [1]; [11]): 15 µM
CC50 at 24 h ([2]; CC50, Round 1): > 50 µM
Clinical Exposure [6]: 0.045 µM

COC(=O)C[C@](O)(CCCC(C)(C)O)C(=O)O[C@@H]1C(OC)=C[C@]23CCCN2CCc2cc4c(cc2[C@H]13)OCO4 [Homoharringtonine]
average EC50/IC50 (SARS-CoV-2 [1]; SARS-CoV-2, Vero cells, average of the rounds): under 300 nM
IC50 (SARS-CoV-2 [1]; [12]): 0.16 µM
IC50 (SARS-CoV-2 [1]; [13]): 0.26 µM
anti-SARS-CoV-2 activity (in words) (SARS-CoV-2 [1]): highly effective
EC50 (HCoV-229E; MRC5): < 0.1 µM
EC50 (HCoV-229E; [14]): 0.0511 µM
activity against HCoV-229E (in words) (HCoV-229E): highly effective
EC50 (HCoV-OC43; Betacoronavirus 1, OC43, MRC5): < 0.1 µM
EC50 (HCoV-OC43; [10]): 0.126 µM
activity against HCoV-OC43 (in words) (HCoV-OC43): highly effective
CC50 at 24 h ([2]; CC50, Round 1): 2.14 µM
CC50 at 24 h ([2]; CC50, Round 2): 6.22 µM
Clinical Exposure [6]: 0.046 µM
CC50 at 96 h [4, 15]: 0.205 µM
CC50 at 120 h [4, 15]: 0.167 µM

N[C@@H]1CCCN(c2c(/C=C3\SC(=O)NC3=O)cccc2-c2ccccc2)C1 [AZD-1208]
IC50 (SARS-CoV-2 [1]; Table 2 test (average reversal score predicted compounds), read-out: IC50): 27.3 µM
CC50 (Vero cells): > 50 µM

CCN(CC)CCCC(C)Nc1ccnc2cc(Cl)ccc12 (stereo not shown) [Chloroquine]
IC50 (SARS-CoV-2 [1]; [8]): 11.3 µM
IC50 (SARS-CoV-2 [1]; [12]): 12 µM
IC50 (SARS-CoV-2 [1]; [13]): 9.8 µM
CC50 (in vitro; CC50, Round 1): 128 µM
CC50 (in vitro; CC50, Round 2): > 150 µM
CC50 (in vitro; CC50, Table 2 test): > 150 µM

N[C@@H](CC(=O)N1CCn2c(nnc2C(F)(F)F)C1)Cc1cc(F)c(F)cc1F [Sitagliptin]
IC50 (SARS-CoV-2 [1]; Severe acute respiratory syndrome coronavirus 2, Vero, 24 h, Table 2 test (average reversal score predicted compounds), read-out: IC50): > 50 µM
anti-SARS-CoV-2 activity (in words) (SARS-CoV-2 [1]): did not show meaningful anti-SARS-CoV-2 activity
CC50 at 24 h ([2]; CC50, Table 2 test): > 50 µM

Cc1nc(Nc2ncc(C(=O)Nc3c(C)cccc3Cl)s2)cc(N2CCN(CCO)CC2)n1 [Dasatinib]
IC50 (SARS-CoV-2 [1]; [11]): 19.7 µM
CC50 at 24 h ([2]; CC50, Round 1): 13.2 µM

Cc1ccc(Cl)c(Nc2ccccc2C(=O)O)c1Cl [Meclofenamic acid sodium salt]
CC50 at 24 h ([2]; CC50, Table 2 test): > 50 µM

CCOC(=O)C1=C(C)NC(C)=C(C(=O)OCC)C1c1ccccc1/C=C/C(=O)OC(C)(C)C [Lacidipine]
IC50 (SARS-CoV-2 [1]; [11]): 14.9 µM
Clinical Exposure [7]: 0.003 to 0.013 µM
CC50 at 24 h ([2]; CC50, Round 1): 20.2 µM

O=C(O)c1ccccc1Nc1cccc(OCc2ccc3ccccc3n2)c1 [SR-2640 hydrochloride]
IC50 (SARS-CoV-2 [1]; [8]): 24.2 µM
anti-SARS-CoV-2 activity (in words) (SARS-CoV-2 [1]): did not result in a meaningful effect on viral production
CC50 at 24 h ([2]; CC50, Table 2 test): > 50 µM

CCC(CC)COC(=O)[C@H](C)N[P@](=O)(OC[C@H]1O[C@@](C#N)(c2ccc3c(N)ncnn23)[C@H](O)[C@@H]1O)Oc1ccccc1 [Remdesivir]
IC50 (SARS-CoV-2 [1]; [8]): 8.58 µM
IC50 (SARS-CoV-2 [1]; [12]): 12.1 µM
IC50 (SARS-CoV-2 [1]; [13]): 7.45 µM
CC50 at 24 h ([2]; CC50, Round 1): > 50 µM
CC50 at 24 h ([2]; CC50, Round 2): > 50 µM
CC50 at 24 h ([2]; CC50, Table 2 test): > 50 µM

Cc1cccc(C)c1OCC(=O)N[C@@H](Cc1ccccc1)[C@@H](O)C[C@H](Cc1ccccc1)NC(=O)[C@H](C(C)C)N1CCCNC1=O [Lopinavir]
IC50 (SARS-CoV-2 [1]; [8]): 12.6 µM
IC50 (SARS-CoV-2 [1]; [13]): 13.5 µM
CC50 at 24 h ([2]; CC50, Round 2): > 50 µM
CC50 at 24 h ([2]; CC50, Table 2 test): > 50 µM

CC(C)C[C@H](NC(=O)[C@H](Cc1ccccc1)NC(=O)c1cnccn1)B(O)O [Bortezomib]
IC50 (SARS-CoV-2 [1]; [11]): 1.39 µM
IC50 (SARS-CoV-2 [1]; [9]): 3.42 µM
anti-SARS-CoV-2 activity (in words) (SARS-CoV-2 [1]): showed efficacy in controlling viral load
EC50 (HCoV-229E; [14]): 0.252 µM
activity against HCoV-229E (in words) (HCoV-229E): no activity
activity against HCoV-229E (in words) (HCoV-229E; listed as bortezomib): did not find bortezomib to be effective
EC50 (HCoV-OC43; [10]): 0.666 µM
activity against HCoV-OC43 (in words) (HCoV-OC43): no activity
activity against HCoV-OC43 (in words) (HCoV-OC43; listed as bortezomib): did not find bortezomib to be effective
Clinical Exposure [7]: 0.29 µM
Clinical Exposure ([7]; iv): approximately 580 nM
CC50 at 24 h ([2]; CC50, Round 1): > 50 µM
CC50 at 24 h ([2]; CC50, Round 2): > 50 µM
CC50 at 96 h [4, 15]: 0.536 µM
CC50 at 120 h [4, 15]: 0.591 µM

CC(C)C[C@H](NC(=O)CNC(=O)c1cc(Cl)ccc1Cl)B(O)O [Ixazomib]
IC50 (SARS-CoV-2 [1]; [9]): 11.7 µM
anti-SARS-CoV-2 activity (in words) (SARS-CoV-2 [1]): showed efficacy in controlling viral load
CC50 at 24 h ([2]; CC50, Round 2): > 50 µM
